From the NIST ThermoML archive (doi:10.1021/je900732r)
“And” between values parts separate entries of the source, which are not always exact repeats. Equal values may be shown once. Numbers after ± are expanded uncertainties.

Key:
[1] = Liquid; for mass density: 101 kPa
[2] = mn = molality of the nth substance listed, in mol/kg; details: 101 kPa, Liquid; for speed of sound: Pulse-echo method

C[S+](C)[O-] [dimethyl sulfoxide]
[1]
Details	mass density
293.15 K	1100.22 ± 0.56 kg/m3 and 1100.23 ± 0.56 kg/m3
298.15 K	1095.19 ± 0.55 kg/m3 and 1095.2 ± 0.56 kg/m3
303.15 K	1090.17 ± 0.54 kg/m3 and 1090.18 ± 0.54 kg/m3
313.15 K	1080.12 ± 0.52 kg/m3 and 1080.12 ± 0.53 kg/m3
323.15 K	1070.08 ± 0.5 kg/m3 and 1070.08 ± 0.51 kg/m3
333.15 K	1060.04 ± 0.49 kg/m3 and 1060.03 ± 0.49 kg/m3

C[S+](C)[O-] [dimethyl sulfoxide] + [Ni+2].[O-][Cl+3]([O-])([O-])[O-].[O-][Cl+3]([O-])([O-])[O-]
[2], m2 = 0
Details	mass density [kg/m3]
293.15 K	1100.22 ± 0.56
298.15 K	1095.19 ± 0.55
303.15 K	1090.17 ± 0.54
313.15 K	1080.12 ± 0.53
323.15 K	1070.08 ± 0.51
333.15 K	1060.04 ± 0.49

O=S(=O)([O-])C(F)(F)F.O=S(=O)([O-])C(F)(F)F.[Cu+2] [copper(II) trifluoromethanesulfonate] + CO
[2]
Details	mass density, 283.15 K [kg/m3]	mass density, 288.15 K [kg/m3]	mass density, 293.15 K [kg/m3]	mass density, 298.15 K [kg/m3]	mass density, 303.15 K [kg/m3]	mass density, 308.15 K [kg/m3]	mass density, 313.15 K [kg/m3]	speed of sound, 298.15 K [m/s]
m1 = 0.1213	829.484 ± 0.46	824.791 ± 0.47	820.094 ± 0.48	815.38 ± 0.48	810.649 ± 0.49	805.885 ± 0.5	801.107 ± 0.5	1106 ± 0.6
m1 = 0.1418	834.535 ± 0.46	829.841 ± 0.46	825.141 ± 0.47	820.428 ± 0.48	815.692 ± 0.48	810.942 ± 0.49	806.159 ± 0.5	1106.6 ± 0.6
m1 = 0.1772	843.312 ± 0.45	838.612 ± 0.45	833.908 ± 0.46	829.19 ± 0.47	824.45 ± 0.47	819.682 ± 0.48	814.901 ± 0.48	1107.4 ± 0.61
m1 = 0.2047	850.214 ± 0.44	845.512 ± 0.45	840.803 ± 0.45	836.081 ± 0.46	831.338 ± 0.47	826.565 ± 0.47	821.777 ± 0.48	1108.2 ± 0.61
m1 = 0.231	856.972 ± 0.44	852.265 ± 0.44	847.554 ± 0.45	842.828 ± 0.45	838.081 ± 0.46	833.302 ± 0.47	828.513 ± 0.47	1109.1 ± 0.61
m1 = 0.2571	863.707 ± 0.43	858.996 ± 0.44	854.279 ± 0.44	849.545 ± 0.45	844.805 ± 0.45	840.033 ± 0.46	835.231 ± 0.47	1109.7 ± 0.61
m1 = 0.2847	871.006 ± 0.42	866.292 ± 0.43	861.57 ± 0.43	856.839 ± 0.44	852.088 ± 0.45	847.311 ± 0.45	842.504 ± 0.46	1110.5 ± 0.62

CO [methanol] + O=S(=O)([O-])C(F)(F)F.O=S(=O)([O-])C(F)(F)F.[Cu+2]
[2], m2 = 0
Details	mass density [kg/m3]
283.15 K	800.548 ± 0.5
288.15 K	795.857 ± 0.51
293.15 K	791.162 ± 0.51
298.15 K	786.452 ± 0.52
303.15 K	781.722 ± 0.52
308.15 K	776.978 ± 0.53
313.15 K	772.2 ± 0.54

CO [methanol] + [Ni+2].[O-][Cl+3]([O-])([O-])[O-].[O-][Cl+3]([O-])([O-])[O-]
[2], m2 = 0
Details	mass density [kg/m3]
283.15 K	800.541 ± 0.48
288.15 K	795.866 ± 0.49
293.15 K	791.169 ± 0.5
298.15 K	786.46 ± 0.51
303.15 K	781.733 ± 0.51
308.15 K	776.979 ± 0.52
313.15 K	772.189 ± 0.53

CO [methanol]
[1]
Details	mass density
283.15 K	800.55 ± 0.48 kg/m3 and 800.541 ± 0.48 kg/m3 and 800.548 ± 0.5 kg/m3
288.15 K	795.872 ± 0.49 kg/m3 and 795.866 ± 0.49 kg/m3 and 795.857 ± 0.51 kg/m3
293.15 K	791.172 ± 0.5 kg/m3 and 791.169 ± 0.5 kg/m3 and 791.162 ± 0.51 kg/m3
298.15 K	786.46 ± 0.51 kg/m3 and 786.452 ± 0.52 kg/m3 and 786.464 ± 0.5 kg/m3
303.15 K	781.742 ± 0.51 kg/m3 and 781.733 ± 0.51 kg/m3 and 781.722 ± 0.52 kg/m3
308.15 K	776.992 ± 0.52 kg/m3 and 776.979 ± 0.52 kg/m3 and 776.978 ± 0.53 kg/m3
313.15 K	772.214 ± 0.52 kg/m3 and 772.189 ± 0.53 kg/m3 and 772.2 ± 0.54 kg/m3

Details	speed of sound [m/s]
[1], 298.15 K, 101.33 kPa, Pulse-echo method	1101.2 ± 0.77
